# Source: patent publication US20100099118A1, “METHODS OF DETERMINING TOTAL PON1 LEVEL” (priority 2007, published 2010)
# Several values for one entry are separate records, joined by “and”; a condition that tells them apart may be missing. Identical values can stand only once.
# Assays:
# serum PON1 [1] = assay: Paraoxonase activity in sera; format: biochemical; conditions: 54 human sera
# Protocol: (§1) Phenyl acetate and paraoxonase activities were measured in 50 mM Tris pH 8.0 with 1 mM CaCl2. All activities were measured with 1 mM substrate, and expressed in Units/ml for phenyl acetate (1 μmol of phenyl acetate hydrolyzed per min per 1 ml undiluted serum) or mUnits/ml for other activities (1 nmol of substrate hydrolyzed per min per 1 ml undiluted serum). Horizontal bars represent the mean value for each group.
# (§2) Paraoxonase and aryl esterase activity in sera: Paraoxonase activity in sera samples was measured in activity buffer with 1 mM paraoxon by monitoring the absorbance at 405 nm in a final volume of 200 μl (ε=10,515 OD/M). Arylesterase activity was measured in activity buffer with 1 mM phenyl acetate by monitoring the absorbance at 270 nm in a final volume of 200 μL (ε=7000D/M).
# PON1 = conditions: from Gaidukov et al. 2006; cited from earlier work
# serum PON1 [2] = assay: Arylesterase activity in sera (phenyl acetate); format: biochemical; conditions: 54 human sera
# Protocol: as §1, §2
# serum PON1 [3] = biological target: T1, serum PON1 (Homo sapiens, UniProt P27169, Q192R); assay: Lactonase activity in sera measured with TBBL; format: biochemical; conditions: RR sera (n = 6); 0.25 mM TBBL; mean and S.D.
# T1 construct: The samples were collected from 54 healthy individuals at Rambam Medical Center; from tissue; host or cells: human serum from 54 healthy individuals
# T1 sequence (P27169 2-355 Q192R): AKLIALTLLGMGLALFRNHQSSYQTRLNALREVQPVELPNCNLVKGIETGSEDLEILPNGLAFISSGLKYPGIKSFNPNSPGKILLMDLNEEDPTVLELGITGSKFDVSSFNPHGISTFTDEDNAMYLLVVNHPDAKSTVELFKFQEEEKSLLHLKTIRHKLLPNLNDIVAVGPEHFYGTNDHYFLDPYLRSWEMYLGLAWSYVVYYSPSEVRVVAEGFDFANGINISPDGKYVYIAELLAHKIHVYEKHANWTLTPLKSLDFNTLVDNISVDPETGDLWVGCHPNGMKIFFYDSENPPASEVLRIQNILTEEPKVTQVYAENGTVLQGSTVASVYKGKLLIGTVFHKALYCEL
# Protocol: (§3) Lactonase Activity in Sera: Human sera were kindly provided by Michael Aviram. The samples were collected from 54 healthy individuals at Rambam Medical Center (Haifa, Israel) with the approval of the institute's Helsinki committee. Phenotyping sera for the PON1-192R/Q polymorphism was performed by a two-substrate method [Eckerson, H. W., et al., Am J Hum Genet. 35: 1126-1138] as previously described [Gaidukov, L., M. Rosenblat, M. Aviram, and D. S. Tawfik. 2006. J Lipid Res 47: 2492-2502]. Sera were divided into aliquots, supplemented with β-mercaptoethanol (5 mM) to prevent oxidation, and stored frozen at −20° C. All assays were performed in 96-well plates (Nunc), using an automated microplate reader (Bio-Tek; optical length ˜0.5 cm). Lactonase activity was measured in activity buffer (50 mM Tris pH 8.0, 1 mM CaCl2) containing 0.25 mM of 5-thiobutyl butyrolactone (TBBL) [Gaidukov, L., et al., 2006 J Lipid Res 47: 2492-2502] and 0.5 mM 5,5′-dithio-bis-2-nitrobenzoic acid (DTNB) by monitoring the absorbance at 412 nm in a final volume of 200 μl (ε=7,000 OD/M). The serum was diluted 400-fold in 100 μl of activity buffer complemented with 1 mM DTNB. DTNB was used from 100 mM stock in DMSO. TBBL was used from 250 mM stock in acetonitrile. TBBL was diluted 500-fold in activity buffer containing 2% acetonitrile. The reaction was initiated by adding 100 μl of TBBL (0.5 mM) to 100 μl of sera dilution. The final sera dilution was 800-fold. All the reaction mixtures contained a final 1% acetonitrile. Rates of spontaneous hydrolysis of TBBL in buffer were subtracted from all the measurements. Activities were expressed as U/ml (1 unit=1 μmol of TBBL hydrolyzed per minute per 1 ml of undiluted serum).
# serum PON1 [4] = assay: Lactonase activity in sera measured with TBBL; format: biochemical, human; conditions: for TBBL lactonase activity: 0.25 mM TBBL, mean and S.D.
# Protocol: as §3
# serum PON1 [5] = biological target: T2, serum PON1 (Homo sapiens, UniProt P27169); assay: Lactonase activity in sera measured with TBBL; format: biochemical; conditions: QQ sera (n = 34); 0.25 mM TBBL; mean and S.D.
# T2 construct: The samples were collected from 54 healthy individuals at Rambam Medical Center; from tissue; host or cells: human serum from 54 healthy individuals
# T2 sequence (P27169 2-355): as the sequence (P27169 2-355 Q192R) above, with R191Q counted along it
# Protocol: as §3
# [6] = biological target: purified human PON1 polymorphs (Homo sapiens, UniProt P27169); assay: Specific activity of purified human PON1 polymorphs for TBBL in absence of HDL; format: biochemical; conditions: 0.25 mM TBBL, same for both polymorphs
# Chain of purified human PON1 polymorphs (P27169 2-355): as the sequence (P27169 2-355 Q192R) above, with R191Q counted along it
# [7] = 50 mM Tris pH 8.0, 1 mM substrate
smiles,measurement,setting,value
CCOP(=O)(OCC)Oc1ccc([N+](=O)[O-])cc1 [Paraoxon],Mean ± S.D. of activity,serum PON1 [1]; [7],49.5 ± 36.6 Units activity
same,Range of activity,serum PON1 [1]; [7],7.7-173.5 Units activity
same,"Variation of activity between sera (fold, in brackets under range)",serum PON1 [1],(23) fold
CC(=O)Oc1ccccc1 [Phenyl acetate],Stimulation upon HDL binding,PON1,ca. 2 fold
same,Mean ± S.D. of activity,serum PON1 [2]; [7],48.2 ± 20.9 Units activity
same,Range of activity,serum PON1 [2]; [7],15.6-100.6 Units activity
same,"Variation of activity between sera (fold, in brackets under range)",serum PON1 [2],(6) fold
"CCCCSC1CCC(=O)O1 (centres unmarked) [TBBL, 5-thiobutyl butyrolactone]",TBBL lactonase activity,serum PON1 [3],5.4 Units/ml and 5.4 ± 2.7 Units/ml
same,Variation of TBBLase activity between sera,serum PON1 [4]; 54 human sera,7 fold
same,TBBL lactonase activity,"serum PON1 [4]; All sera (n = 54), μmol hydrolyzed per min per 1 ml undiluted serum",3.8 ± 1.9 Units/ml
same,TBBL lactonase activity,serum PON1 [4]; RQ sera (n = 14),4.1 ± 2.1 Units/ml
same,Mean lactonase activity in RR sera relative to QQ sera,serum PON1 [4]; RR vs QQ sera,1.5 fold
same,TBBL lactonase activity,serum PON1 [5],3.5 Units/ml and 3.5 ± 1.6 Units/ml
same,Specific activity for TBBL,[6],1.0±0.1 μmol/min/mg of protein
